Data reported in US20030096704A1, “Novel use of herbicides” (priority 2000, published 2003).

Legend:
[1] = tested on: Rice “Lemont” (conventional rice variety); assay: Post-emergence herbicidal action on rice (paddy system): phytotoxicity on conventional rice; type: in vivo, Oryza sativa; conditions: 8 g/ha, evaluated after about 21 days, 0% no action, 100% plant completely died
Experimental: (§1) Post-emergence Herbicidal Action on Rice:
(§2) Weeds are sown and raised in soil saturated with water in plastics troughs. The rice plants are sown and grown separately from the weeds and after 10 days transplanted into the plastics troughs containing the weeds. The test compounds are then applied to the plants in the form of an aqueous suspension. One day after application, the water level is raised by 3 cm (paddy system).
(§3) The test plants are then grown on in a greenhouse under optimum conditions. […] For comparison with the prior art, the compound sulfometuron-methyl (known from The Pesticide Manual, 10th ed., the British Crop Protection Council, page 931) is tested. Sulfometuron-methyl belongs to the same class of ALS-inhibitors as the compound of formula I. The compound of formula I and sulfometuron-methyl are tested at a rate of application of 8 g/ha.
The variety “Lemont” is used as conventional rice variety.

[2] = tested on: Rice ATCC 97523 (ALS-inhibitor-resistant rice variety SPCW-1); assay: Post-emergence herbicidal action on rice (paddy system): phytotoxicity on ALS-inhibitor-resistant rice; type: in vivo, Oryza sativa; conditions: 8 g/ha, evaluated after about 21 days, 0% no action, 100% plant completely died
Experimental: as §1, §2, §3
The ALS-inhibitor-resistant rice variety used is Oryza sativa, Linnaeus name: SPCW-1, deposited under the number ATCC 97523, depositor: Louisiana State Univ.

[3] = tested on: Cyperus serotinus (CYPSE); assay: Post-emergence herbicidal action on rice (paddy system): weed control; type: in vivo; conditions: 8 g/ha; leaf stage 3, height 11 cm at application; about 21 days
Experimental: as §1, §2, §3

[4] = tested on: Echinochloa crus galli (ECHCG); assay: as above; type: in vivo; conditions: 8 g/ha, about 21 days
Experimental: as §1, §2, §3

[5] = tested on: Monochoria vaginalis (MOOVA); assay: as above; type: in vivo; conditions: 8 g/ha; leaf stage 2, height 1 cm at application; about 21 days
Experimental: as §1, §2, §3

For `COC(=O)c1ccccc1S(=O)(=O)NC(=O)Nc1nc(C)cc(C)n1` [sulfometuron-methyl], the “% Phytotoxicity Rice “Lemont”” value [1] was 100%, the “% Phytotoxicity Rice ATCC 97523” value [2] was 95% and the “% Weed control CYPSE” value [3] was 95%. For the same compound, the “% Weed control ECHCG 1” value ([4]; Echinochloa crus galli post 1.0 leaf (leaf stage 1.5, height 6 cm at application)) was 100%, the “% Weed control ECHCG 3” value ([4]; Echinochloa crus galli post 3.0 leaf (leaf stage 3, height 25 cm at application)) was 98% and the “% Weed control MOOVA” value [5] was 100%.
